# Measured values as given in patent US5482931A, “Stabilized pharmaceutical peptide compositions” (Ferring AB, priority 1993, dated 1996).
# Legend:
# [1] = Adsorption of 125I-marked desmopressin to tubes of polystyrene, polypropene and glass; format: physicochemical; conditions: 24 h, ambient temperature
# Experimental: Sterile aqueou solutions of desmopressin marked with ^125 I (appr. 10,000 CPM/ml) containing benzalkonium chloride+saline, chlorobutanol+saline, or saline only, were all incubated in tubes of polystyrene, polypropene and glass for 24 h at ambient temperature.
# [2] = aqueous solution of desmopressin; cited from earlier work
compound,measurement,setting,value
"NC(=O)CC[C@@H]1NC(=O)[C@H](Cc2ccccc2)NC(=O)[C@H](Cc2ccc(O)cc2)NC(=O)CCSSC[C@@H](C(=O)N2CCC[C@H]2C(=O)N[C@H](CCCN=C(N)N)C(=O)NCC(N)=O)NC(=O)[C@H](CC(N)=O)NC1=O [desmopressin, 1-deamino-8-D-arginine vasopressin]",amount of desmopressin recovered from the plastic tubes,"[1]; preservative-free solution (saline only), plastic tubes",about half
same,adsorption of desmopressin to tubes,[1]; solution containing benzalkonium chloride + saline,insignificant adsorption
same,adsorption of desmopressin to tubes,[1]; solution containing chlorobutanol + saline,insignificant adsorption
same,storage temperature required for the aqueous solution,[2],≤ 8 °C
